The record followed here is PMC11313435, “Identification of Antioxidant Methyl Derivatives of Ortho-Carbonyl Hydroquinones That Reduce Caco-2 Cell Energetic Metabolism and Alpha-Glucosidase Activity” (International Journal of Molecular Sciences, 2024).

Entries after “also recorded” stand apart in the source; their conditions may differ.

A short description of data set [1]: ORAC assay (oxygen radical absorbance capacity, ORAC-FL). The following applies: radical scavenging against peroxyl radicals; mean ± SD of three experiments. The protocol:
The radical-scavenging activities of the hydroquinone series against peroxyl radicals were assessed (ORAC assays). […] Similarly, for the series with the gem-diethyl group on ring B (compounds 6–10), compound 6 presents the highest antioxidant capacity (7.0 + 0.3 mol TE/mol compound). […] The replacement of the gem-dimethyl with the gem-diethyl group also decreases the antioxidant capacity.
The antioxidant activity was determined by ORAC (oxygen radical absorbance capacity) assays. Briefly, the antioxidant capacity for ORAC-FL was estimated by measuring the changes in fluorescence after 120 min of reaction with the radical. Assays were performed using a 96-well microplate in a Synergy H1 hybrid multi-mode microplate reader (Biotek, Winooski, VT, USA), and the results were expressed as µmol Trolox 100 g^−1 DW. Three replicates were accomplished for each analysis.

The next data set addresses α-glucosidase. Kind of data set: α-glucosidase inhibitory activity (p-nitrophenyl α-D-glucopyranoside substrate). As to conditions: for IC50: pH 6.9, 37 °C, 15 min, mean ± SD of three experiments, read-out: Inhibition of α-Glucosidase Activity IC50; for pIC50 (α-glucosidase): pIC50 = −log[IC50], Figure 2A. The format is biochemical.
Data set [2] relates to Caco-2 cells. Kind of data set: MTT assay, cell proliferation. The format is cell-based, human. The following applies: Caco-2, 24 h treatment, 1-100 µM (Figure 3A). The protocol:
We evaluate the effect of ortho-carbonyl hydroquinones 1–10 on the intestinal Caco-2 cell line at 24 h of treatment.
Caco-2 cells were grown in Dulbecco’s modified Eagle’s Medium/Nutrient Mixture F-12 (D-MEM/F-12), supplemented with 5% fetal bovine serum (FBS), penicillin (100 IU/mL), streptomycin (100 μg/mL), and nonessential amino acid solution 1% (GIBCO, Thermo Fisher Scientific, Grand Island). The culture media contained no exogenous pyruvate supplementation, and the cells were maintained in a humidified atmosphere at 37 °C and 5% CO2.
The cell proliferation was determined using the MTT assay. The cells were incubated in 96-well plates at 7000 cells per well and incubated for 24 h. The cells were treated for 24 h with compounds (1, 5, 10, 30, 50, and 100 μM). After treatment, the culture medium was removed, and the cells were incubated with MTT for 1 h at 37 °C. Finally, 100 μL of DMSO was added and measured by spectrophotometry at 570 nm, as previously described.
(Tetrazolium dyes change colour on reduction, which living cells bring about.)

Data set [3] deals with Caco-2 cells. Kind of data set: Extracellular acidification rate and oxygen consumption rate in real time (Seahorse XFe96). The format is cell-based, human. As to conditions: Caco-2, 100 µM; for Effect on proton leak-driven OCR: 24 h (Figure 4A-D); for Effect on max OCR: 24 h (Figures 3C, 4A-D); for Effect on basal mitochondrial OCR / Effect on glycolysis (ECAR) / Effect on glycolysis, cluster in dendrogram: 24 h; for Effect on basal mitochondrial OCR: compared to control (Figures 3B, 4A-D); for Effect on glycolysis (ECAR): compared to control (Figures 3B, 4E-H); for Effect on glycolysis, cluster in dendrogram: clusters of Figure 3C. The protocol: We previously described how ortho-carbonyl hydroquinone scaffolds inhibit oxidative phosphorylation in breast cancer cells. Since the reduction in glucose utilization and metabolism in intestinal cells is a promising target for T2DM treatment, the effect of these compounds on mitochondrial respiration and glycolysis in Caco-2 cells was determined. […] The effect of ortho-carbonyl hydroquinone series (100 µM) on five parameters of mitochondrial respiration (basal OCR, max OCR, spare capacity, ATP-linked OCR, and proton leak-driven OCR), and two of glycolysis (glycolytic capacity and glycolysis), is represented in a dendrogram (Figure 3C). […] OCR: compounds 1, 6, 7, and 9. […] No correlations between OCR and ECAR parameters, α-glucosidase activity inhibition, or ORAC were observed (Supplementary Figure S1).
In contrast, compound 10 increases the proton leak-OCR and decreases max OCR (Figure 4A–D).
To analyze the extracellular acidification rate (ECAR), Caco-2 cells (10,000 cells/well) were seeded on XFe96 V3-PS multi-well plates and kept for 24 h at 37 °C in 5% CO2 with a DMEM culture medium supplemented with FBS. After 24 h, the cells were stimulated by compounds at 100 μM for 24 h. Then, the culture medium was replaced with assay media (unbuffered DMEM without red phenol, with 4 mM glutamine and 10 mM glucose, pH = 7.4) 1 h before the assay. Glycolysis was evaluated by the sequential injection of 10 mM glucose, 1 µM oligomycin, and 100 mM 2-deoxy-D-glucose (2-DG), and ECAR was analyzed using specific excitation and emission wavelengths of protons (470/530 nm). To study the mitochondrial function, the sequential injection of 1 μM oligomycin, 250 nM FCCP, 1 μM rotenone, and 1 μM antimycin A was added. The oxygen consumption rate (OCR) measurements were made with the specific excitation and emission wavelengths of the fluorescent probes for oxygen (532/650 nm) using a Seahorse XFe96 Analyzer (Seahorse Agilent, USA), and OCR and ECAR data were normalized by protein content/well, which was determined using a BCA kit. Each experiment was performed at least in triplicate. The OCR/ECAR data analysis and dendrograms were performed using XLSTAT software (version 2023.2.1414, Lumivero, New York, NY, USA).

The subject of data set [4] is Caco-2 cells. Kind of data set: Menadione-induced cytosolic (DHE) and mitochondrial (MitoSOX) ROS by flow cytometry. The format is cell-based, human. The following applies: Caco-2, 100 and 200 µM for 24 h, then 25 µM menadione 1 h; for Effect on menadione-induced mitochondrial ROS production: MitoSOX Red. The protocol: Using menadione as an ROS inducer, the preventive effect of compounds 5 and 10 on mitochondrial and cytosolic ROS production was evaluated. No changes in the mitochondrial ROS production were observed (Figure 4I).
The mtROS and ROS levels were measured using MitoSOX® Red Mitochondrial Superoxide (Invitrogen, Carlsbad, CA, USA) and Invitrogen™ Dihydroethidium (Hydroethidine, DHE) probes, respectively. The Caco-2 cells were incubated in 12-well plates at 50,000 cells for 24 h. The cells were treated with compounds 5 and 10 at 100 μM and 200 μM for 24 h. Next, the cells were incubated with 25 μM menadione 25 μM for 1 h, and then the cells were washed with PBS and incubated with MitoSOX Red® (5 µM) or DHE (5 μM) for 30 min. Then, they were recollected, and washed, and the fluorescence was detected by flow cytometry according to Urra et al., 2018 [31].
For orientation: Flow cytometry measures light scatter and fluorescence of single cells or particles in a stream.

Procedure for α-glucosidase: The inhibition of α-glucosidase was determined following a previous method [62] using p-nitrophenyl α-D-glucopyranoside as a substrate. The reaction mixture contained 160 µL of 0.1 M sodium phosphate buffer (pH = 6.9), 5 µL of enzyme (5.46 U/mL), and polyphenolic extract (0.17–1.36 µg/mL). After the pre-incubation of the reaction mixture on ice for 5 min, the enzyme reaction was started by adding 5 µL of 25 mM p-nitrophenyl α-D-glucopyranoside into this mixture. The reaction was incubated for 15 min at 37 °C. Then, 80 µL of 0.2 M sodium carbonate was added. The absorbance was measured at 405 nm in a microplate reader (Biotek ELx808, Agilent, Santa Clara, CA, USA). Enzyme inhibition was calculated using the following equation: % inhibition = (A0 − As)/A0 × 100, where A0 is the absorbance of the control (blank, without extract) and As is the absorbance in presence of the extract. IC50 values denote the µg GAE/mL required to inhibit the enzyme by 50%.

As for `CC1=CC(C)(C)c2c(O)c(C)c(C)c(O)c2C1=O` [Compound 5, 5,8-Dihydroxy-2,4,4,6,7-pentamethylnaphthalen-1(4H)-one], the melting point (usually the temperature of the solid-liquid transition) lay in the range of 199.9 to 201.5 °C. The ORAC in data set [1] was found to be 0.37 ± 0.01 mol TE/mol Compound. For the same compound, at α-glucosidase, the IC50 (usually the midpoint of a concentration-inhibition curve) came to 103 µM and the “pIC50 (α-glucosidase)” value is listed as 3.98. In addition, the “Effect on MTT reduction” value in the data set with Caco-2 cells [2] is given as “significantly increased the MTT reduction”. Moreover, in the data set on Caco-2 cells [3], the “Effect on proton leak-driven OCR” value is on record as “without affecting”, the “Effect on max OCR” value is listed as “reduced effect on max OCR; also recorded: reduces”, the “Effect on basal mitochondrial OCR” value was “reduces” and the “Effect on glycolysis (ECAR)” value is listed as “reduces the glycolysis; also recorded: significantly reduce the glycolysis”. The “Effect on glycolysis, cluster in dendrogram” value (from here on “Effect on glycolysis, cluster”) with Caco-2 cells [3] is listed as “glycolysis inhibitors”. Also, in the data set with Caco-2 cells [4] (DHE), the “Effect on menadione-dependent cytosolic ROS production” value is reported as “significantly prevented”. In the data set with Caco-2 cells [4], the “Effect on menadione-induced mitochondrial ROS production” value was “No changes”.

As to `CCC1(CC)C=CC(=O)c2c(O)ccc(O)c21` [Compound 6, 4,4-Diethyl-5,8-dihydroxynaphthalen-1(4H)-one], in data set [1], the ORAC is on record as 7.0 ± 0.3 mol TE/mol Compound. For the same compound, at α-glucosidase, the IC50 stood at 195 µM and the “pIC50 (α-glucosidase)” value is given as 3.71. Further, the “Effect on MTT reduction” value in the data set on Caco-2 cells [2] is “decreased the MTT reduction”. Besides, in the data set with Caco-2 cells [3], the “Effect on max OCR” value is listed as “strong inhibitory effect on max. OCR”; the “Effect on basal mitochondrial OCR” value is on record as “reduces the basal mitoOCR”; the “Effect on glycolysis (ECAR)” value is given as “increases ECAR”; the “Effect on glycolysis, cluster” value was “glycolysis enhancers”.

As for `CCC1(CC)C=C(C)C(=O)c2c(O)c(C)c(C)c(O)c21` [Compound 10, 4,4-Diethyl-5,8-dihydroxy-2,6,7-trimethylnaphthalen-1(4H)-one], the ORAC in data set [1] is recorded as 0.10 ± 0.01 mol TE/mol Compound. In addition, at α-glucosidase, the IC50 worked out at 78 µM and the “pIC50 (α-glucosidase)” value was 4.10. In the data set on Caco-2 cells [2], the “Effect on MTT reduction” value is “significantly increased the MTT reduction”. In the data set with Caco-2 cells [3], the “Effect on proton leak-driven OCR” value is “increases”; the “Effect on max OCR” value is given as “reduced effect on max OCR”; the “Effect on glycolysis (ECAR)” value was “reduces the glycolysis; also recorded: significantly reduce the glycolysis”; the “Effect on glycolysis, cluster” value was “glycolysis inhibitors”. Also, the “Effect on max OCR” value with Caco-2 cells [3] (listed as compound 10) is on record as “decreases”. In addition, in the data set on Caco-2 cells [4], the “Effect on menadione-induced mitochondrial ROS production” value is “No changes”.
